Data as given in patent EP0745083B1, “2-HETEROARYL-5,11-DIHYDRO-6H-DIPYRIDO [3,2-b:2',3'-e][1,4]DIAZEPINES AND THEIR USE IN THE PREVENTION OR TREATMENT OF HIV INFECTION” (BOEHRINGER INGELHEIM PHARMACEUTICALS INC., priority 1994, dated 1995).

Key:
[1] = biological target: T1, HIV-1 RT wild type (WT) enzyme (Human immunodeficiency virus type 1 group M subtype B, UniProt P03367); experiment: Reverse Transcriptase (RT) Assay, wild type enzyme (RNA-dependent DNA polymerase activity); assay type: biochemical, Human Immunodeficiency Virus (HIV-1); settings: 1 µM compound, read-out: Reverse Transciptase Assay % inhibition (1 µM) WT
T1 construct: Reverse transcriptase enzyme from the LAV strain of Human Immunodeficiency Virus (HIV-1) (1) was isolated from the bacterial strain JM109; made in house; host or cells: E. coli JM109 (clone pBRTprt1+ in vector pIBI21, lac promoter)
Excerpt: Utilizing the Reverse Transcriptase (RT) Assay described below, compounds can be tested for their ability to inhibit the RNA-dependent DNA polymerase activity of HIV-1 RT. Certain specific compounds described in the Examples which appear below, were so tested.
Among the enzymes for which Human Immunodeficiency Virus (HIV-1) encodes is a reverse transcriptase (1), so-named because it transcribes a DNA copy from an RNA template. This activity can be quantitatively measured in a cell-free enzyme assay, which has been previously described (2), and is based upon the observation that reverse transcriptase is able to use a synthetic template [poly r(C) primed with oligo d(G)] to transcribe a radio-labelled, acid-precipitable DNA strand utilizing ^3H-dGTP as a substrate. The assay described below utilizes the wild type (WT) enzyme, which is the predominant form of the enzyme observed in patients infected with HIV-1. Utilization of mutant RT eraymes (Y181C and Y181L, prepared by site-directed mutagenesis in which the tyrosine residue at codon 181 has been replaced by a cysteine or a leucine residue, respectively) and analogous assay conditions allows compounds to be evaluated for their effectiveness at inhibiting these mutant enzymes.
Reverse transcriptase enzyme from the LAV strain of Human Immunodeficiency Virus (HIV-1) (1) was isolated from the bacterial strain JM109 (3) expressing the DNA clone pBRTprt1+ (2) which is under the control of the lac promotor in the expression vector pIBI21 (4). An overnight culture grown in 2XYT medium (37°C, 225 rpm) (5) supplemented with 100 µg/mL ampicillin for positive selection is inoculated at a 1:40 dilution into M9 medium supplemented with 10µg/mL thiamine, 0.5% casamino acids, and 50 µg/mL ampicillin (5). The culture is incubated (37°C, 225 rpm) until it reaches an OD540 of 0.3-0.4. At that time the repressor inhibitor IPTG (isopropyl β-D-thiogalactopyranoside) is added to 0.5mM, and the mixture is incubated for 2 additional hours. Bacteria are pelleted, resuspended in a 50mM Tris, 0.6mM EDTA, 0.375M NaCl buffer and digested by the addition of lysozyme (1mg/mL) for 30 minutes on ice. The cells are lysed by the addition of 0.2% NP-40 and brought to 1M NaCl.
After removal of the insoluble debris by centrifugation, the protein is precipitated by the addition of 3 volumes of saturated aqueous ammonium sulfate. The enzyme is pelleted, resuspended in RT buffer (50mM Tris pH 7.5, 1mM EDTA, 5mM DTT, 0.1% NP-40, 0.1M NaCI, and 50% glycerol), and stored at -70°C for further use.
The 2X concentrated stock reaction mixture is aliquoted and stored at -20°C. The mixture is stable and thawed for use in each assay. This enzyme assay has been adapted to a 96 well microtiter plate system, and has been previously described (6). Tris buffer (50 mM, pH 7.4), vehicle (solvent diluted to match the compound dilution), or compounds in vehicle are dispensed into 96-well microtiter plates (10µL/well; 3 wells/ compound). The HIV-1 RT enzyme is thawed, diluted in 50mM Tris pH 7.4 so that fifteen µL of diluted enzyme contain 0.001 Unit (one unit is that amount of enzyme to transform 1 micromole of substrate per minute at 25°C), and fifteen µL are dispensed per well. Twenty µL of 0.12-0.5M EDTA are added to the first three wells of the microtiter plate. EDTA chelates the Mg^++ present and prevents reverse transcription. This group serves as background polymerization which is subtracted from all other groups. Twenty-five ul of the 2X reaction mixture are added to all wells and the assay is allowed to incubate at room temperature for 60 minutes. The assay is terminated by precipitating the DNA in each well with 50µL of 10% trichloracetic acid (TCA) (10% w/v) in sodium pyrophosphate (1% w/v). The microtiter plate is incubated for 15 minutes at 4°C and the precipitate is fixed onto #30 glass fiber paper (Schleicher & Schuell) using a Skatron semi-automatic harvester. […]

HIV-1 RT Y188L = biological target: T2, HIV-1 RT Y188L (Human immunodeficiency virus type 1 group M subtype B, UniProt P03367, Y787L); experiment: Reverse Transcriptase (RT) Assay, Y188L mutant enzyme; assay type: biochemical, Human Immunodeficiency Virus (HIV-1); settings: 1 µM compound
T2 construct: effective against the reverse transcriptase of many mutant viruses; made in house

MTT assay (cytotoxicity) = assay type: cell-based; settings: human; H9 cells; five days incubation
Method: In order to roughly assess the cytotoxicity of the compounds provided by the invention, several such compounds were tested in the MTT Assay described below. Compounds having a relatively high CC50 are preferred.
The MTT [3-(4,5-dimethylthiazol-2-yl)-2,5 diphenyl tetrazolium bromide) assay is based on cleavage of tetrazolium bromide by metabolically active cells, resulting in a highly quantitative blue color. This assay has been previously described (1) but has been optimized for the purposes of the testing reported herein.
The H9 cell line (2), an established human lymphoma suspension cell line grown in RPMI 1640 supplemented with 10% fetal bovine serum, is used as the target cell line in the assay. Cells (100µL) are plated in microtest plate wells at a concentration of 10^5 cells per mL in the presence of varying concentrations of inhibitor. The cells are incubated at 37°C in a humidified CO2 incubator. Five days later, 20µL of MTT (5mg/mL in RPMI 1640, sonicated, 0.2 micron filtered, and stored at 4°C) is added to each well. After 4 hours additional incubation at 37°C, 60µL of Triton-X is added to each well and thoroughly mixed to aid the solubilization of the crystals. Absolute ethanol (5µL) is added to each well and the resulting mixture is incubated for 30 minutes at 60°C and immediately read on a plate reader (Dynatech) at a wavelength of 570nm.
Data from this assay are used to generate a nonlinear regression analysis which yields an CC50.

## CCN1c2ncccc2C(=O)N(C)c2ccc(-c3cn[nH]c3)nc21 [Example 1, 5,11-Dihydro-11-ethyl-5-methyl-2-(4-pyrazolyl)-6H-dipyrido[3,2-b:2'3'-e][1,4]diazepin-6-one]
[1]
  inhibition at 1 µM: 97%
HIV-1 RT Y188L; 1 µM
  Reverse Transciptase Assay % inhibition (1 µM) Y188L: 77%
MTT assay (cytotoxicity)
  CC50 at 120 h: > 60 µM

## CN1C(=O)c2cccnc2N(C2CC2)c2nc(-c3cn[nH]c3)ccc21 [Example 6, 5,11-Dihydro-5-methyl-11-c-propyl-2-(4-pyrazolyl)-6H-dipyrido[3,2-b:2',3'-e][1,4]diazepin-6-one]
[1]
  inhibition at 1 µM: 94%
HIV-1 RT Y188L
  Reverse Transciptase Assay % inhibition (1 µM) Y188L: 84%
MTT assay (cytotoxicity)
  CC50 at 120 h: > 60 µM

## CCN1c2ncccc2C(=O)N(C)c2ccc(-c3cc[nH]c3)nc21 [Example 12, 5,11-Dihydro-11-ethyl-5-methyl-2-(3-pyrrolyl)-6H-dipyrido[3,2-b:2',3'-e][1,4]diazepin-6-one]
[1]
  inhibition at 1 µM: 95%
MTT assay (cytotoxicity)
  CC50 at 120 h: > 50 µM

## CN1C(=O)c2cccnc2N(C2CC2)c2nc(-c3cc[nH]c3)ccc21 [Example 25, 11-Cyclopropyl-5,11-dihydro-5-methyl-2-(3-pyrrolyl)-6H-dipyrido[3,2-b:2',3'-e][1,4]diazepin-6-one]
[1]
  inhibition at 1 µM: 92%
HIV-1 RT Y188L
  Reverse Transciptase Assay % inhibition (1 µM) Y188L: 80%
MTT assay (cytotoxicity)
  CC50 at 120 h: > 80 µM
